Columns and labels:
[1] = tested on: orthotopic human U87 GBM tumors; experiment: Intracranial distribution of proteins after CED; format: in vivo, mouse; conditions: one day after CED; protein/NP 1/10; confocal microscopy
Description: Intracranial Orthotopic GBM Tumor Model. Female athymic nude mice (NCRNU-Sp/Sp), 6-7 weeks age, were purchased from Taconic Biosciences (Germantown, N.Y.). All animals were kept under pathogen-free conditions according to Association for Assessment and Accreditation of Laboratory Animal Care (AAALAC) guidelines and were allowed to acclimatize for at least 4 days prior to any experiments. All animal experiments were performed in compliance with institutional guidelines and according to protocol approved by the Committee for the Humane Use of Animals of State University of New York Upstate Medical University. Athymic nude mice were anesthetized with ketamine/xylazine (80 mg/kg: 5 mg/kg) through an intraperitoneal injection. The mice were then placed in a stereotactic head frame. Using aseptic technique, a midline skin incision was made a 0.5 mm anterior to bregma and 2.5 mm lateral of midline, a burr hole will be placed. A 25G needle delivered U87 (GBM) tumor cells 3.2 mm deep via the stereotactic head frame. Approximately 5×10^4 cells (in 1 μL of PBS) will be injected. This injection will occur over the course of 5 minutes. […]
CED Administration of Protein Formulations. […] For bioluminescence image analysis, the associated bioluminescence intensities were determined by Living Image software (Caliper Life Sciences) using operator-defined regions of interest (ROI) measurements.

[2] = Protein release from agarose gels (0.6% wt); format: physicochemical; conditions: FITC-BSA from agarose gels (0.6% wt) immersed in PBS
Description: Protein Release from Agarose Gels. Free FITC-BSA and FITC-BSA-incorporated lipidoid-telodendrimer hybrid nanoparticles (1/10, FITC-BSA/nanoparticle, w/w) were loaded in agarose gels of a concentration of 0.6% wt. The sample-loaded agarose gels were immersed in PBS (1×) with shaking for protein release assays. The concentration of released FITC-BSA at various time points was measured by fluorescence spectroscopy employing a pre-established calibration equation. The release medium was replaced with fresh medium. The accumulated protein release was reported as the means for each triplicate sample.

U87 cells [3] = experiment: Cellular uptake of protein-incorporated nanoparticles, U87 cells; format: cell-based, human; conditions: 2 h at 37° C.
Description: (§1) Cellular Uptake of Protein-Incorporated Nanoparticles. The cellular uptake and intracellular trafficking of the protein-incorporated nanoparticles were determined by fluorescence microscopy. FITC-BSA was used as a model protein. HT-29 and U87 cells were seeded in chamber slide with a density of 5×10^4 cells per well in 350 μL of McCoy's 5 A and cultured for 24 h. The original medium was replaced with free FITC-BSA and FITC-BSA-loaded nanoparticles at final FITC a concentration of 1 or 3 μg/mL at 37° C. After a 2 h incubation, the cells were washed three times with cold PBS (1×) and fixed with 4% formaldehyde for 10 min at room temperature, and the cell nuclei were stained with DAPI. The slides were mounted with cover slips and cells were imaged with a Leica fluorescence microscope or a Nikon FV1000 laser scanning confocal scanning microscope. The mean fluorescence density in cells (unit: pixel^−1) was calculated using the following equation: […]

HT-29 cells = experiment: Cellular uptake of protein-incorporated nanoparticles, HT-29 cells; format: cell-based, human; conditions: 2 h at 37° C., FITC approx. 1 μg/mL
Description: as §1

[4] = DLS hydrodynamic diameter of lipidoid-telodendrimer hybrid NPs; format: physicochemical; conditions: lipidoid alone
Description: (§2) Formulation of Lipidoid-Telodendrimer Nanoparticles. Nanoparticles were formed by mixing lipidoids and/or telodendrimers at required mass ratios in a solution of 90% ethanol and 10% 10 mM sodium citrate (by volume). Particle solutions were diluted with 10 times volume of phosphate buffered saline (PBS, 1×), and dialyzed against PBS (1×) for 4 h. The particle solution was then mixed with proteins at a ratio of 1/10 (protein/nanoparticle, w/w) to form nanoparticle-protein complex. The complex solution was then stored in sealed vessels at 4° C. for 1 day before use. For Mcl-1 inhibitor-loaded nanoparticle preparation, the Mcl-1 inhibitor, lipidoids and telodendrimers were in a solution of 90% ethanol and 10% 10 mM sodium citrate (by volume). Particle solutions were diluted with 10 times volume of PBS, yielding Mcl-1 inhibitor-loaded lipidoid-telodendrimer nanoparticles.
(§3) Characterization. Proton NMR spectrum was recorded on a Bruker AVANCE 600 MHz spectrometer. MALDI-TOF mass spectrum was recorded on a Bruker REFLEX-III instrument. Dynamic light scattering (DLS) studies were performed using a Zetatrac (Microtrac Inc.) instrument, and the area-based mean particle sizes were presented. Zeta potential measurements were carried out on a Malvern Nano-ZS zetasizer at room temperature. […] UV-vis spectra were recorded on a Thermo Scientific Nanodrop 2000c spectrophotometer.

[5] = Zeta potential of lipidoid-telodendrimer hybrid NPs; format: physicochemical; conditions: lipidoid alone
Description: as §2, §3

U87 cells [6] = experiment: MTS cell viability assay on U87 cells; format: cell-based, human; conditions: 72 h continuous incubation
Description: Cell Culture and MTS Assays. The human glioblastoma multiforme (GBM) cell lines U87 and LN229, as well as the colon cancer cell line HT-29 cell line were purchased from American Type Culture Collection (ATCC, Manassas, Va., U.S.A.). U138 cell line established from human patients diagnosed with GBM. All cells were cultured in McCoy's 5 A medium supplemented with 10% fetal bovine serum (FBS), 100 U/mL penicillin G, and […] streptomycin at 37° C. using a humidified 5% CO2 incubator. Various formulations of proteins with different dilutions were added to the plate and then incubated in a humidified 37° C., 5% CO2 incubator. After a 72 h continuous incubation, a mixture solution composed of CellTiter 96 AQueous MTS, and an electron coupling reagent, PMS, was added to each well according to the manufacturer's instructions. The cell viability was determined by measuring absorbance at 490 nm using a microplate reader (BioTek Synergy 2). Untreated cells served as the control. Results were shown as the average cell viability [100%×(ODtreat−ODblank)/(ODcontrol−ODblank)] of triplicate wells. The cells were also treated with blank nanoparticles in PBS (1×) and blank lipidoids in a mixture of cremophor/ethanol (v:v=1:1) with different dilutions and incubated for a total of 72 h to evaluate nanoparticle-related toxicity.

With “free Cy5-BSA: near-infrared fluorescence dye-labeled BSA (Cy5-BSA), model protein” the “distribution in brain sections containing U87 tumors (fluorescence)” value [1] was “no obvious fluorescent signals”.

In the case of “free FITC-BSA: fluorescein isothiocyanate (FITC) labeled BSA, model protein”, the “time within which ~50% of the proteins released” value [2] is reported as ≤ 2 h, the “cellular uptake efficiency (semi-quantitative, mean fluorescence intensity)” value (U87 cells [3]; FITC approx. 1 μg/mL) is reported as “closes to zero” and the “cellular uptake (confocal laser fluorescence microscopy)” value (U87 cells [3]; FITC approx. 3 μg/mL) is reported as “very low”. The “cellular uptake efficiency (semi-quantitative, mean fluorescence intensity)” value (HT-29 cells) was “closes to zero”.

In the case of `CCCCCCCCCCCCCCC(O)CN(C)CCCN(C)CC(O)CCCCCCCCCCCCCC` (centres unmarked) [lipidoid, 1,1′-(propane-1,3-diylbis(methylazanediyl))bis(hexadecan-2-ol)], the “particle size of lipidoid NPs” value [4] is reported as ~129 nm, the “ζ-potential of lipidoid NPs” value [5] is reported as “+8 mV” and the “cytotoxicity of blank nanoparticles / lipidoid” value (U87 cells [6]) is reported as “toxicity was observed”.

Reference: patent US20170266292A1, “LIPIDIC COMPOUND-TELODENDRIMER HYBRID NANOPARTICLES AND METHODS OF MAKING AND USES THEREOF” (The Research Foundation for The State University of New York, priority 2016, published 2017)
